Data taken from US7786108B2, “Compounds and method for treating dyslipidemia” (Eli Lilly and Company, priority 2004, dated 2010).

system: not given; experiment: not given; conditions: not given

melting point	SMILES
71 to 74 °C (dec.)	COC(=O)c1ccc(CN2CCC[C@H](N(Cc3cc(C(F)(F)F)cc(C(F)(F)F)c3)c3nnn(C)n3)c3cc(C)c(C(F)(F)F)cc32)cc1 [Example 88, (S)-4-{5-[(3,5-Bis-trifluoromethyl-benzyl)-(2-methyl-2H-tetrazol-5-yl)-amino]-7-methyl-8-trifluoromethyl-2,3,4,5-tetrahydro-benzo[b]azepin-1-ylmethyl}-benzoic acid methyl ester]
83 to 86 °C	Cc1cc2c(cc1C(F)(F)F)N(Cc1cccc(C(=O)O)c1)CCC[C@@H]2N(Cc1cc(C(F)(F)F)cc(C(F)(F)F)c1)c1nnn(C)n1 [Example 91, (S)-3-{5-[(3,5-Bis-trifluoromethyl-benzyl)-(2-methyl-2H-tetrazol-5-yl)-amino]-7-methyl-8-trifluoromethyl-2,3,4,5-tetrahydro-benzo[b]azepin-1-ylmethyl}-benzoic acid]
95 to 98 °C	Cc1cc2c(cc1C(F)(F)F)N(Cc1ccc(C(=O)O)cc1)CCC[C@@H]2N(Cc1cc(C(F)(F)F)cc(C(F)(F)F)c1)c1nnn(C)n1 [Example 89, (S)-4-{5-[(3,5-Bis-trifluoromethyl-benzyl)-(2-methyl-2H-tetrazol-5-yl)-amino]-7-methyl-8-trifluoromethyl-2,3,4,5-tetrahydro-benzo[b]azepin-1-ylmethyl}-benzoic acid]
62 to 65 °C (dec.)	COC(=O)c1cccc(CN2CCC[C@H](N(Cc3cc(C(F)(F)F)cc(C(F)(F)F)c3)c3nnn(C)n3)c3cc(C)c(C(F)(F)F)cc32)c1 [Example 90, (S)-3-{5-[(3,5-Bis-trifluoromethyl-benzyl)-(2-methyl-2H-tetrazol-5-yl)-amino]-7-methyl-8-trifluoromethyl-2,3,4,5-tetrahydro-benzo[b]azepin-1-ylmethyl}-benzoic acid methyl ester]
101 to 105 °C	Cc1cc2c(cc1C(F)(F)F)N(c1ccc(C(=O)O)cc1)CCC[C@@H]2N(Cc1cc(C(F)(F)F)cc(C(F)(F)F)c1)c1nnn(C)n1 [Example 92, (S)-4-{5-[(3,5-Bis-trifluoromethyl-benzyl)-(2-methyl-2H-tetrazol-5-yl)-amino]-7-methyl-8-trifluoromethyl-2,3,4,5-tetrahydro-benzo[b]azepin-1-yl}-benzoic acid]

system: transgenic mice that express both human CETP and human apolipoprotein A-1; experiment: In vivo assay of plasma lipids: elevation of HDL cholesterol; conditions: Mus musculus; single oral dose 30 mg/kg; HDL cholesterol in serum at 8 hr after administration; relative to a control; read-out: % HDL cholesterol increase
Source text: Additional serum lipids can be analyzed by enzymatic methods.

SMILES	change in vivo at 30 mg/kg [%]
Cc1cc2c(cc1C(F)(F)F)N(Cc1ccc(C(=O)O)cc1)CCC[C@@H]2N(Cc1cc(C(F)(F)F)cc(C(F)(F)F)c1)c1nnn(C)n1 [Example 89, (S)-4-{5-[(3,5-Bis-trifluoromethyl-benzyl)-(2-methyl-2H-tetrazol-5-yl)-amino]-7-methyl-8-trifluoromethyl-2,3,4,5-tetrahydro-benzo[b]azepin-1-ylmethyl}-benzoic acid]	186
Cn1nnc(N(Cc2cc(C(F)(F)F)cc(C(F)(F)F)c2)[C@H]2CCCN(CC3CCCC3)c3cc4c(cc32)COC4)n1 [Example 73, (S)-(3,5-Bis-trifluoromethyl-benzyl)-(5-cyclopentylmethyl-3,5,6,7,8,9-hexahydro-1H-2-oxa-5-aza-cyclohepta[f]inden-9-yl)-(2-methyl-2H-tetrazol-5-yl)-amine]	374
Cc1cc2c(c(C)c1C(F)(F)F)N(C[C@H]1CC[C@H](CC(=O)O)CC1)CCC[C@@H]2N(Cc1cc(Cl)cc(C(F)(F)F)c1)c1nnn(C)n1 [Example 201, (S)-(4-{5-[(3-Chloro-5-trifluoromethyl-benzyl)-(2-methyl-2H-tetrazol-5-yl)-amino]-7,9-dimethyl-8-trifluoromethyl-2,3,4,5-tetrahydro-benzo[b]azepin-1-ylmethyl}-cyclohexyl)-acetic acid]	147
Cc1cc2c(c(C)c1C(F)(F)F)N(CC1CC1)CCC[C@@H]2N(Cc1cc(Cl)cc(C(F)(F)F)c1)c1nnn(C)n1 [Example 200, (S)-(3-Chloro-5-trifluoromethyl-benzyl)-(1-cyclopropylmethyl-7,9-dimethyl-8-trifluoromethyl-2,3,4,5-tetrahydro-1H-benzo[b]azepin-5-yl)-(2-methyl-2H-tetrazol-5-yl)-amine]	153
Cc1c2c(cc3c1N(Cc1ccc(C(=O)O)cc1)CCC[C@@H]3N(Cc1cc(C(F)(F)F)cc(C(F)(F)F)c1)c1nnn(C)n1)COC2 [Example 166, (S)-4-{9-[(3,5-Bis-trifluoromethyl-benzyl)-(2-methyl-2H-tetrazol-5-yl)-amino]-4-methyl-1,3,6,7,8,9-hexahydro-2-oxa-5-aza-cyclohepta[f]inden-5-ylmethyl}-benzoic acid]	102
CC(C)OC(=O)N1CCCC(N(Cc2cc(C(F)(F)F)cc(C(F)(F)F)c2)c2nnn(C)n2)c2cc3c(cc21)CCC3 (racemic) [Example 50, (+/−)-9-[(3,5-Bis-trifluoromethyl-benzyl)-(2-methyl-2H-tetrazol-5-yl)-amino]-2,3,6,7,8,9-hexahydro-1H-5-aza-cyclohepta[f]indene-5-carboxylic acid isopropyl ester]	127
Cc1cc2c(cc1C(F)(F)F)N(Cc1ccc(O)c(C(=O)O)c1)CCC[C@@H]2N(Cc1cc(C(F)(F)F)cc(C(F)(F)F)c1)c1nnn(C)n1 [Example 141, (S)-5-{5-[(3,5-Bis-trifluoromethyl-benzyl)-(2-methyl-2H-tetrazol-5-yl)-amino]-7-methyl-8-trifluoromethyl-2,3,4,5-tetrahydro-benzo[b]azepin-1-ylmethyl}-2-hydroxy-benzoic acid]	74
Cc1cc2c(c(C)c1C(F)(F)F)N(CCC(C)(C)CC(=O)O)CCC[C@@H]2N(Cc1cc(C(F)(F)F)cc(C(F)(F)F)c1)c1nnn(C)n1 [Example 154, (S)-5-{5-[(3,5-Bis-trifluoromethyl-benzyl)-(2-methyl-2H-tetrazol-5-yl)-amino]-7,9-dimethyl-8-trifluoromethyl-2,3,4,5-tetrahydro-benzo[b]azepin-1-yl}-3,3-dimethyl-pentanoic acid]	99
CCN1CCC[C@H](N(Cc2cc(C(F)(F)F)cc(C(F)(F)F)c2)c2nnn(C)n2)c2cc(C)c(C(F)(F)F)cc21 [Example 30, (S)-(3,5-Bis-trifluoromethyl-benzyl)-(1-ethyl-7-methyl-8-trifluoromethyl-2,3,4,5-tetrahydro-1H-benzo[b]azepin-5-yl)-(2-methyl-2H-tetrazol-5-yl)-amine]	54
Cc1cc2c(cc1C(F)(F)F)N(Cc1ccncc1)CCC[C@@H]2N(Cc1cc(Cl)cc(C(F)(F)F)c1)c1nnn(C)n1 [Example 191, (S)-(3-Chloro-5-trifluoromethyl-benzyl)-(7-methyl-1-pyridin-4-ylmethyl-8-trifluoromethyl-2,3,4,5-tetrahydro-1H-benzo[b]azepin-5-yl)-(2-methyl-2H-tetrazol-5-yl)-amine]	91
Cc1cc2c(cc1C(F)(F)F)N(Cc1ccncc1)CCC[C@@H]2N(Cc1cc(Cl)cc(Cl)c1)c1nnn(C)n1 [Example 187, (S)-(3,5-Dichloro-benzyl)-(7-methyl-1-pyridin-4-ylmethyl-8-trifluoromethyl-2,3,4,5-tetrahydro-1H-benzo[b]azepin-5-yl)-(2-methyl-2H-tetrazol-5-yl)-amine]	124
CCC(CC)OC(=O)N1CCC[C@H](N(Cc2cc(C(F)(F)F)cc(C(F)(F)F)c2)c2nnn(C)n2)c2cc(C)c(C(F)(F)F)cc21 [Example 18, (S)-5-[(3,5-Bis-trifluoromethyl-benzyl)-(2-methyl-2H-tetrazol-5-yl)-amino]-7-methyl-8-trifluoromethyl-2,3,4,5-tetrahydro-benzo[b]azepine-1-carboxylic acid 1-ethyl-propyl ester]	105
